{"source": "ChEMBL document CHEMBL3997799", "about": "“Synthesis and anti-proliferative activity evaluation of novel benzo[d][1,3] dioxoles-fused 1,4-thiazepines” (Eur J Med Chem, 2017)", "key": {"[1]": {"system": "EC9706", "experiment": "Antiproliferative activity against human EC9706 cells after 48 hrs by MTT assay", "type": "functional, cell-based", "settings": "EC9706, 48 h"}, "[2]": {"system": "ECa-109 cell line", "experiment": "Antiproliferative activity against human ECA109 cells after 48 hrs by MTT assay", "type": "functional, cell-based", "settings": "ECa-109, 48 h"}, "[3]": {"system": "EC9706", "experiment": "Potency index, ratio of 5-fluorouracil IC50 to test compound IC50 for human EC9706 cells", "type": "functional"}, "[4]": {"experiment": "Potency index, ratio of 5-fluorouracil IC50 to test compound IC50 for human ECA109 cells", "type": "functional"}}}
{"smiles": "COc1cc(C2SCC(=O)Nc3cc4c(cc32)OCO4)cc(OC)c1OC", "note": "(stereo not given)", "values": [{"measurement": "IC50", "setting": "[1]", "result": 70.9, "unit": "µM"}, {"measurement": "IC50", "setting": "[2]", "result": 130, "unit": "µM"}]}
{"smiles": "CC1SC(c2ccc([N+](=O)[O-])cc2)c2cc3c(cc2NC1=O)OCO3", "note": "(stereo not given)", "values": [{"measurement": "IC50", "setting": "[1]", "result": 34.7, "unit": "µM"}, {"measurement": "IC50", "setting": "[2]", "result": 50.4, "unit": "µM"}]}
{"smiles": "O=C1CSC(c2ccco2)c2cc3c(cc2N1)OCO3", "note": "(stereo not given)", "values": [{"measurement": "IC50", "setting": "[1]", "result": 30.3, "unit": "µM"}, {"measurement": "IC50", "setting": "[2]", "result": 42, "unit": "µM"}]}
{"smiles": "CC1SC(c2cccc([N+](=O)[O-])c2)c2cc3c(cc2NC1=O)OCO3", "note": "(stereo not given)", "values": [{"measurement": "IC50", "setting": "[1]", "result": 88.4, "unit": "µM"}, {"measurement": "IC50", "setting": "[2]", "result": 106, "unit": "µM"}]}
{"smiles": "O=C1CSC(c2ccccc2)c2cc3c(cc2N1)OCO3", "note": "(stereo not given)", "values": [{"measurement": "IC50", "setting": "[1]", "result": 43.2, "unit": "µM"}, {"measurement": "IC50", "setting": "[2]", "result": 38.7, "unit": "µM"}]}
{"smiles": "COc1cccc(C2SCC(=O)Nc3cc4c(cc32)OCO4)c1", "note": "(stereo not given)", "values": [{"measurement": "IC50", "setting": "[1]", "result": 54.6, "unit": "µM"}, {"measurement": "IC50", "setting": "[2]", "result": 49.6, "unit": "µM"}]}
{"smiles": "COc1cc(OC)cc(C2SCC(=O)Nc3cc4c(cc32)OCO4)c1", "note": "(stereo not given)", "values": [{"measurement": "IC50", "setting": "[1]", "result": 11.7, "unit": "µM"}, {"measurement": "IC50", "setting": "[2]", "result": 30.3, "unit": "µM"}]}
{"smiles": "CC1SC(c2ccc(Cl)cc2)c2cc3c(cc2NC1=O)OCO3", "note": "(stereo not given)", "values": [{"measurement": "IC50", "setting": "[1]", "result": "> 200", "unit": "µM"}, {"measurement": "IC50", "setting": "[2]", "result": "> 200", "unit": "µM"}]}
{"smiles": "O=C1CSC(c2cccc([N+](=O)[O-])c2)c2cc3c(cc2N1)OCO3", "note": "(stereo not given)", "values": [{"measurement": "IC50", "setting": "[1]", "result": "> 200", "unit": "µM"}, {"measurement": "IC50", "setting": "[2]", "result": "> 200", "unit": "µM"}]}
{"smiles": "COc1ccc(C2SCC(=O)Nc3cc4c(cc32)OCO4)cc1", "note": "(stereo not given)", "values": [{"measurement": "IC50", "setting": "[1]", "result": 16.4, "unit": "µM"}, {"measurement": "IC50", "setting": "[2]", "result": 33, "unit": "µM"}]}
{"smiles": "O=C1CSC(c2ccc(F)cc2)c2cc3c(cc2N1)OCO3", "note": "(stereo not given)", "values": [{"measurement": "IC50", "setting": "[1]", "result": 106, "unit": "µM"}, {"measurement": "IC50", "setting": "[2]", "result": "> 200", "unit": "µM"}]}
{"smiles": "O=C1CSC(c2cccs2)c2cc3c(cc2N1)OCO3", "note": "(stereo not given)", "values": [{"measurement": "IC50", "setting": "[1]", "result": 69.6, "unit": "µM"}, {"measurement": "IC50", "setting": "[2]", "result": 95.5, "unit": "µM"}]}
{"smiles": "Cc1ccccc1C1SCC(=O)Nc2cc3c(cc21)OCO3", "note": "(stereo not given)", "values": [{"measurement": "IC50", "setting": "[1]", "result": 33.5, "unit": "µM"}, {"measurement": "IC50", "setting": "[2]", "result": 55.5, "unit": "µM"}]}
{"smiles": "COc1ccc(C2SCC(=O)Nc3cc4c(cc32)OCO4)cc1Br", "note": "(stereo not given)", "values": [{"measurement": "IC50", "setting": "[1]", "result": 8.23, "unit": "µM"}, {"measurement": "IC50", "setting": "[2]", "result": 16.2, "unit": "µM"}, {"measurement": "Ratio IC50", "setting": "[3]", "result": "2 - 3"}, {"measurement": "Ratio IC50", "setting": "[4]", "result": "2 - 3"}]}
{"smiles": "Cc1ccc(C2SCC(=O)Nc3cc4c(cc32)OCO4)cc1", "note": "(stereo not given)", "values": [{"measurement": "IC50", "setting": "[1]", "result": 17.1, "unit": "µM"}, {"measurement": "IC50", "setting": "[2]", "result": 27.7, "unit": "µM"}]}
{"smiles": "O=C1CSC(c2ccc([N+](=O)[O-])cc2)c2cc3c(cc2N1)OCO3", "note": "(stereo not given)", "values": [{"measurement": "IC50", "setting": "[1]", "result": 24.9, "unit": "µM"}, {"measurement": "IC50", "setting": "[2]", "result": 42.3, "unit": "µM"}]}
{"smiles": "Cc1ccc(C2SC(C)C(=O)Nc3cc4c(cc32)OCO4)cc1", "note": "(stereo not given)", "values": [{"measurement": "IC50", "setting": "[1]", "result": "> 200", "unit": "µM"}, {"measurement": "IC50", "setting": "[2]", "result": "> 200", "unit": "µM"}]}
{"smiles": "O=C1CSC(c2ccc(Cl)cc2)c2cc3c(cc2N1)OCO3", "note": "(stereo not given)", "values": [{"measurement": "IC50", "setting": "[1]", "result": 34.4, "unit": "µM"}, {"measurement": "IC50", "setting": "[2]", "result": 36.2, "unit": "µM"}]}
{"smiles": "O=c1[nH]cc(F)c(=O)[nH]1", "note": "[FLUOROURACIL]", "values": [{"measurement": "IC50", "setting": "[1]", "result": 23.3, "unit": "µM"}, {"measurement": "IC50", "setting": "[2]", "result": 30.2, "unit": "µM"}]}
